Reference: US9657013B2, “Inhibitors of hepatitis B virus covalently closed circular DNA formation and their method of use” (priority 2012, dated 2017)

Experiments:
[1] = target: T1, HBV polymerase (Hepatitis B virus genotype D subtype ayw, UniProt P03156); assay: endogenous DNA polymerase reaction (EPR); format: biochemical; conditions: for HBV polymerase activity: in vitro endogenous polymerase reaction, HBV virions from HepDE19 culture fluid
T1 construct: HBV virion stock (˜5×10^7 genome equivalents) concentrated from the supernatant of HepDE19 cells cultured in tetracycline-free medium; expressed in transfected cells; host or cells: HepDE19 cells (HBV-producing line, tetracycline-off); virions concentrated from the supernatant
Procedure: Endogenous DNA polymerase reaction (EPR): The EPR was performed as previously described with modifications (Guo, H., R. Mao, T. M. Block, and J. T. Guo. 2010). Briefly, EPR mixture was assembled with 10 μl of HBV virion stock (˜5×10^7 genome equivalents) concentrated from the supernatant of HepDE19 cells cultured in tetracycline-free medium (Guo, H., D. Jiang, T. Zhou, A. Cuconati, T. M. Block, and J. T. Guo. 2007, plus 15 μl of 2×EPR buffer which consisted of 0.3 M NaCl, 0.1 M Tris-HCl (pH 8.0), 20 mM MgCl2, 2 mM dithiothreitol, 0.2% (vol/vol) Nonidet P-40, 0.2 mM each of dATP/dGTP/dTTP, and 10 μM α-^32P-dCTP. Compounds were added as indicated and water was supplemented to bring the reaction volume to 30 μl. As a positive control, 0.2 mM of dGTP in the 2×EPR buffer was replaced with 0.2 mM ddGTP. After incubation at 37° C. for 1 hours, the reaction solution was dotted on Whatman 3M filter (Millipore, Billerica, Mass.) and subjected to rinse with 10% trichloride acid for 30 min at room temperature, followed by 3 times of wash with 95% ethanol, 5 min each. The radioactivity (counts of per minute, CPM) of acid insoluble ^32P was counted with a liquid scintillation counter (PerkinElmer, Waltham, Mass.).

[2] = system: HBV e antigen (HBeAg) production in HepDE19 cells; assay: HBeAg ELISA in HepDE19 cells (surrogate marker for cccDNA); format: cell-based, hepatitis B virus; conditions: nine days incubation
Procedure: High throughput compound screen and assay: HepDE19 cells were cultured under tetracycline containing medium until confluent, the cells were then trypsinized and seeded in 96-well plates at a density of 5.0×10^4 cells/well with tetracycline-free medium to induce HBV replication. Immediately following cell seeding, compounds were added to screening plates by means of automated liquid handling (Beckman Coulter, Brea, Calif.), at a final concentration of 10 μM in 1.0% DMSO. Each screening plate consisted of 80 compound test wells, 4 wells of cells with 1.0% DMSO only, 4 wells with DMSO and without cells, and 4 wells of cells with DMSO and 50 μM lamivudine (3TC) as a reference inhibitor. […] Intracellular HBeAg (precore) accumulation was assayed by indirect ELISA assay as follows. Media was removed from wells and the cell monolayer was fixed with 100% ice cold methanol for 20 min, followed with two washes (150 μl each) with PBS containing 0.5% Tween-20 (PBST) with 1 min incubation at room temperature. […] Signal was allowed to develop for 20 minutes and optical absorbance was determined at a wavelength of 650 nm with a reference reading at 490 nm. […]

T1 sequence (P03156 whole entry): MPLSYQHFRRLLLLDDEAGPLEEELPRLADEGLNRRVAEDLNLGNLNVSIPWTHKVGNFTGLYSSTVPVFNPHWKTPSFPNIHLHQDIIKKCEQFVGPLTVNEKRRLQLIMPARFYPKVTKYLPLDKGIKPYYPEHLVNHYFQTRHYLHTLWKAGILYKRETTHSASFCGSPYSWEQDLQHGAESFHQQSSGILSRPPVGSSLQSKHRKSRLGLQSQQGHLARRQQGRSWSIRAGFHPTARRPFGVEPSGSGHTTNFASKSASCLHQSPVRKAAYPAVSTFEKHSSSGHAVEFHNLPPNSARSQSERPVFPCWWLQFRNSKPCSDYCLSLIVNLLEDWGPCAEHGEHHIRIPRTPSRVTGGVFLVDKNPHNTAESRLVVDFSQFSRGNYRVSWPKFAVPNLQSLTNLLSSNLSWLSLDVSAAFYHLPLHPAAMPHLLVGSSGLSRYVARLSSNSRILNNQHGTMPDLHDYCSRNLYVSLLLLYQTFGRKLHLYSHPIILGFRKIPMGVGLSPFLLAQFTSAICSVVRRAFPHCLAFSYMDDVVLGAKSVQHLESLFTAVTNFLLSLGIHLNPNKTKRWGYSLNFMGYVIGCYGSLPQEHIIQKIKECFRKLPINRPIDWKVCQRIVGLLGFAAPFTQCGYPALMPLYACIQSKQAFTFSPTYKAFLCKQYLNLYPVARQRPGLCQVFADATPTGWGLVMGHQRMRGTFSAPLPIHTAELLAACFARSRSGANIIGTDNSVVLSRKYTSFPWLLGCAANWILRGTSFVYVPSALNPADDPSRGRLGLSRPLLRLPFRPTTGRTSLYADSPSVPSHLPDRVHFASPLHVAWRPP

Cc1nc2cc(NC(=O)c3ccc(S(=O)(=O)N(C)Cc4ccccc4)cc3)ccc2s1 [CCC-0346, 4-(Benzyl-methyl-sulfamoyl)-N-(2-methyl-benzothiazol-5-yl)-benzamide]
viral polymerase activity ([1]; endogenous polymerase reaction, compound at 3 μM): does not inhibit
HBV polymerase activity [1]: did not inhibit
HBeAg production [2]: inhibitor

O=C(CN(c1cc(C(F)(F)F)ccc1Cl)S(=O)(=O)c1ccccc1)NCc1ccncc1 [CCC-0975, 2-[Benzenesulfonyl-(2-chloro-5-trifluoromethyl-phenyl)-amino]-N-pyridin-4-ylmethyl-acetamide]
HBV polymerase activity ([1]; listed as 2-[Benzenesulfonyl-(2-chloro-5-trifluoromethyl-phenyl)-amino]-N-pyridin-4-ylmeth): does not inhibit
HBV polymerase activity ([1]; listed as 2-[benzenesulfonyl-(2-chloro-5-trifluoromethyl-phenyl)-amino]-N-pyridin-4-ylmeth): did not inhibit
HBeAg production [2]: inhibitor
